In patent publication US20250129070A1, “BIFUNCTIONAL ANDROGEN RECEPTOR COMPOUNDS” (priority 2023, published 2025) one finds IC50 and EC50 data, which are given here for eleven molecules.

SMILES strings stand for the structures.

The test system of one experiment is VCaP cells. In words: VCaP growth inhibition assay. The format is cell-based. Particulars: 30 pM R1881, 9 days, CTG. Summed up: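 Growth read by CTG luminescence after 9-day exposure to compound (final 100 nM–10 fM, 1:5 steps) plus 30 pM R1881, in phenol red-free DMEM with 5% CSS. Cells pre-incubated 72 h before dosing; IC50 by nonlinear 4-parameter regression.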

The test system of another experiment is AR / CBP ternary complex. In words: Ternary complex formation assay (sandwich ELISA, AR capture / CBP detection) in VCaP cell lysates. Type of experiment: cell-based. Particulars: 1.5 hours treatment, sandwich ELISA (AR capture, CBP or p300 detection). Summed up: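 Anti-AR (AR 441)-coated plates capture AR from lysates of VCaP cells grown ≥3 days at 50K/well in 5% charcoal-stripped FBS, dosed with bifunctional for 1.5 h and lysed 30 min at 4 °C. Co-captured CBP/p300 is probed with rabbit mAb and HRP anti-rabbit, then QuantaRed fluorescence (570/585) is read at 0, 5 and 15 min.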
For orientation: An ELISA detects its analyte on a solid surface through an enzyme-linked reagent.

Broadly, the IC50 is the concentration at which inhibition is half-maximal. A word on the EC50: it is the concentration giving half of the maximal effect. A low value points to an effect from little substance.

As for `Cn1c(=O)n(C)c2cc(N3CCCc4cc(-c5ccc(CCC6CCN(c7ncc(C(=O)NC8C(C)(C)C(Oc9ccc(C#N)c(Cl)c9)C8(C)C)cn7)CC6)nc5)ncc43)ccc21` (stereo not shown) [Compound 234, N-[3-(3-chloro-4-cyano-phenoxy)-2,2,4,4-tetramethyl-cyclobutyl]-2-[4-[2-[5-[1-(1,3-dimethyl-2-oxo-benzimidazol-5-yl)-3,4-dihydro-2H-1,7-naphthyridin-6-yl]-2-pyridyl]ethyl]-1-piperidyl]pyrimidine-5-carboxamide], the half-maximal inhibitory concentration (IC50) in the experiment on VCaP cells was over 100 nM. The EC50 in the experiment on AR / CBP ternary complex is 1 to 10 nM.
The matching figures for `COc1cc(OC2C(C)(C)C(NC(=O)c3ccc(N4CCC(CN5CCC(n6nc(N7CCCc8cc(-c9cnn(C)c9)c(C(F)F)cc87)c7c6CCN(C(C)=O)C7)CC5)C(OC)C4)cc3)C2(C)C)ccc1C#N` (stereo not shown) [Compound 332, 4-[4-[[4-[5-acetyl-3-[7-(difluoromethyl)-6-(1-methylpyrazol-4-yl)-3,4-dihydro-2H-quinolin-1-yl]-6,7-dihydro-4H-pyrazolo[4,3-c]pyridin-1-yl]-1-piperidyl]methyl]-3-methoxy-1-piperidyl]-N-[3-(4-cyano-3-methoxy-phenoxy)-2,2,4,4-tetramethyl-cyclobutyl]benzamide]: at most 0.1 nM and under 1 nM.
The matching figures for `Cn1c(=O)n(C)c2cc(-c3cccc4cc(-c5ccc(CCC6CCN(c7ncc(C(=O)NC8C(C)(C)C(Oc9ccc(C#N)c(Cl)c9)C8(C)C)cn7)CC6)nc5)ncc34)ccc21` (stereo not shown) [Compound 232, N-[3-(3-chloro-4-cyano-phenoxy)-2,2,4,4-tetramethyl-cyclobutyl]-2-[4-[2-[5-[8-(1,3-dimethyl-2-oxo-benzimidazol-5-yl)-3-isoquinolyl]-2-pyridyl]ethyl]-1-piperidyl]pyrimidine-5-carboxamide]: over 100 nM and 10 to 100 nM.
Taken in the same sequence, the figures for `COc1cc(OC2C(C)(C)C(NC(=O)c3ccc(N4CCN(C5CN(c6ccc(-c7cc8cccc(-c9nn(C%10CCOCC%10)c%10c9CN(C(C)=O)CC%10)c8cn7)cn6)C5)CC4)cc3)C2(C)C)ccc1C#N` (stereo not shown) [Compound 322, 4-[4-[1-[5-[8-(5-acetyl-1-tetrahydropyran-4-yl-6,7-dihydro-4H-pyrazolo[4,3-c]pyridin-3-yl)-3-isoquinolyl]-2-pyridyl]azetidin-3-yl]piperazin-1-yl]-N-[3-(4-cyano-3-methoxy-phenoxy)-2,2,4,4-tetramethyl-cyclobutyl]benzamide] were at most 0.1 nM and under 1 nM.
In the experiment on VCaP cells, `CC(=O)N1CCc2c(c(N3CCCc4cc(-c5cnn(C)c5)c(C(F)F)cc43)nn2C2CCN(c3ncc(C(=O)NC4C(C)(C)C(Oc5ccc(C#N)c(Cl)c5)C4(C)C)cn3)CC2)C1` (stereo not shown) [Compound 95, 2-[4-[5-acetyl-3-[7-(difluoromethyl)-6-(1-methylpyrazol-4-yl)-3,4-dihydro-2H-quinolin-1-yl]-6,7-dihydro-4H-pyrazolo[4,3-c]pyridin-1-yl]-1-piperidyl]-N-[3-(3-chloro-4-cyano-phenoxy)-2,2,4,4-tetramethyl-cyclobutyl]pyrimidine-5-carboxamide] gave an IC50 of 0.1 to 1 nM. This molecule had an EC50 in the experiment on AR / CBP ternary complex of 1 to 10 nM.
As to `CC(=O)N1CCc2c(c(Nc3ccc(-c4cnn(C)c4)cc3F)nn2C2CCN(CC3CCN(c4ncc(C(=O)NC5C(C)(C)C(Oc6ccc(C#N)c(Cl)c6)C5(C)C)cn4)CC3)CC2)C1` (stereo not shown) [Compound 186, 2-[4-[[4-[5-acetyl-3-[2-fluoro-4-(1-methylpyrazol-4-yl)anilino]-6,7-dihydro-4H-pyrazolo[4,3-c]pyridin-1-yl]-1-piperidyl]methyl]-1-piperidyl]-N-[3-(3-chloro-4-cyano-phenoxy)-2,2,4,4-tetramethyl-cyclobutyl]pyrimidine-5-carboxamide], the IC50 with VCaP cells lay in the range of 0.1 to 1 nM. In addition, the EC50 in the experiment with AR / CBP ternary complex is under 1 nM.
Taken in the same sequence, the figures for `CC(=O)N1CCc2c(c(N3CCCc4cc(-c5cnn(C)c5)c(C(F)F)cc43)nn2C2CCN(CC#Cc3ncc(C(=O)NC4C(C)(C)C(Oc5ccc(C#N)c(Cl)c5)C4(C)C)cn3)CC2)C1` (stereo not shown) [Compound 19, 2-[3-[4-[5-acetyl-3-[7-(difluoromethyl)-6-(1-methylpyrazol-4-yl)-3,4-dihydro-2H-quinolin-1-yl]-6,7-dihydro-4H-pyrazolo[4,3-c]pyridin-1-yl]-1-piperidyl]prop-1-ynyl]-N-[3-(3-chloro-4-cyano-phenoxy)-2,2,4,4-tetramethyl-cyclobutyl]pyrimidine-5-carboxamide] were 0.1 to 1 nM and under 1 nM.
The matching figures for `CC(=O)N1CCc2c(c(N3CCCc4cc(-c5cnn(C)c5)c(C(F)F)cc43)nn2C2CCN(CC3C(C)CN(c4ncc(C(=O)NC5C(C)(C)C(Oc6ccc(C#N)c(Cl)c6C)C5(C)C)cn4)CC3C)CC2)C1` (stereo not shown) [Compound 460, 2-[4-[[4-[5-acetyl-3-[7-(difluoromethyl)-6-(1-methylpyrazol-4-yl)-3,4-dihydro-2H-quinolin-1-yl]-6,7-dihydro-4H-pyrazolo[4,3-c]pyridin-1-yl]-1-piperidyl]methyl]-3,5-dimethyl-1-piperidyl]-N-[3-(3-chloro-4-cyano-2-methyl-phenoxy)-2,2,4,4-tetramethyl-cyclobutyl]pyrimidine-5-carboxamide]: at most 0.1 nM and under 1 nM.
The matching figures for `CC(=O)N1CCc2c(c(-c3cccc4cc(-c5ccc(CCC6CC7(C6)CN(c6ncc(C(=O)NC8C(C)(C)C(Oc9ccc(C#N)c(Cl)c9)C8(C)C)cn6)C7)nc5)ncc34)nn2C2CCOCC2)C1` (stereo not shown) [Compound 227, 2-[6-[2-[5-[8-(5-acetyl-1-tetrahydropyran-4-yl-6,7-dihydro-4H-pyrazolo[4,3-c]pyridin-3-yl)-3-isoquinolyl]-2-pyridyl]ethyl]-2-azaspiro[3.3]heptan-2-yl]-N-[3-(3-chloro-4-cyano-phenoxy)-2,2,4,4-tetramethyl-cyclobutyl]pyrimidine-5-carboxamide]: at most 0.1 nM and under 1 nM.
For `CC(=O)N1CCc2c(c(-c3cccc4cc(-c5ccc(COc6ncc(C(=O)NC7C(C)(C)C(Oc8ccc(C#N)c(Cl)c8)C7(C)C)cn6)nc5)ncc34)nn2C2CCOCC2)C1` (stereo not shown) [Compound 71, 2-[[5-[8-(5-acetyl-1-tetrahydropyran-4-yl-6,7-dihydro-4H-pyrazolo[4,3-c]pyridin-3-yl)-3-isoquinolyl]-2-pyridyl]methoxy]-N-[3-(3-chloro-4-cyano-phenoxy)-2,2,4,4-tetramethyl-cyclobutyl]pyrimidine-5-carboxamide], the IC50 in the experiment with VCaP cells lay within 1 to 100 nM. The molecule also had an EC50 with AR / CBP ternary complex of under 1 nM.
Taken in the same sequence, the figures for `COc1cc(OC2C(C)(C)C(NC(=O)c3ccc(N4CC(N5CCC6(CCC(n7nc(N8CCCc9cc(-c%10cnn(C)c%10)c(C(F)F)cc98)c8c7CCN(C(C)=O)C8)CC6)C5)C4)cc3)C2(C)C)ccc1C#N` (stereo not shown) [Compound 402, 4-[3-[8-[5-acetyl-3-[7-(difluoromethyl)-6-(1-methylpyrazol-4-yl)-3,4-dihydro-2H-quinolin-1-yl]-6,7-dihydro-4Hpyrazolo[4,3-c]pyridin-1-yl]-2-azaspiro[4.5]decan-2-yl]azetidin-1-yl]-N-[3-(4-cyano-3-methoxy-phenoxy)-2,2,4,4-tetramethyl-cyclobutyl]benzamide] were at most 0.1 nM and under 1 nM.
